Here are results for 31 molecules from patent publication US11963960B2 (Flash Therapeutics, LLC, priority 2020, dated 2024).

In the test the target is N-terminally GST-tagged HCK (75-526) (Homo sapiens (Human), UniProt P08631). Description: HCK Kinase Assay (ProFluor Src-Family Kinase Assay). The following applies: HCK inhibitory activity, 50 μM ATP; read-out: HCK Activity. It is filed as biochemical. An outline of the steps:
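ProFluor Src-family format: after the kinase reaction, protease solution was added for 60 min at room temperature (22-25° C), then stabilizer.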

Sequence of N-terminally GST-tagged HCK (75-526) (P08631 75-526): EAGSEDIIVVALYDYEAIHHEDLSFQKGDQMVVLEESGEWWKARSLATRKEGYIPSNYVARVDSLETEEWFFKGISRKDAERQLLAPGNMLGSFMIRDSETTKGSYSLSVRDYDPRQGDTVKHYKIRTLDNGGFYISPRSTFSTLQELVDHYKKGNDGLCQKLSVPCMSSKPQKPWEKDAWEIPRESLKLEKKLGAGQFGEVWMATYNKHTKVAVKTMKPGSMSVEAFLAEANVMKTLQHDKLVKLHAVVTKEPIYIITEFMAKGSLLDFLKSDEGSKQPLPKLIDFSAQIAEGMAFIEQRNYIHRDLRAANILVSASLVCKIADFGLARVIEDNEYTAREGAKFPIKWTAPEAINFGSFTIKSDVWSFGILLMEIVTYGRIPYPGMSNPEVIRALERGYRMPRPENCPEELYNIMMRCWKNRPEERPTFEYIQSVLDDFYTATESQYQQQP

As to `C[C@H]1CN([C@H]2CC[C@@H](n3nc(-c4ccc(Oc5ccccc5)cc4F)c4c(N)ncnc43)CC2)CCN1` [Example 128, 3-(2-fluoro-4-phenoxyphenyl)-1-((cis)-4-((S)-3-methylpiperazin-1-yl)cyclohexyl)-1H-pyrazolo[3,4-d]pyrimidin-4-amine], the IC50 was 50 to 250 nM. `C[C@H]1CN([C@H]2CC[C@H](n3cc(-c4ccc(NC(=O)Nc5cc(C(C)(C)C)on5)cc4)c4c(N)ncnc43)CC2)CCN1` [Example 129, 1-(4-(4-amino-7-((trans)-4-((S)-3-methylpiperazin-1-yl)cyclohexyl)-7H-pyrrolo[2,3-d]pyrimidin-5-yl)phenyl)-3-(5-(tert-butyl)isoxazol-3-yl)urea]: the IC50 was < 50 nM. For `C[C@H]1CN([C@H]2CC[C@@H](n3cc(-c4ccc(NC(=O)Nc5cc(C(C)(C)C)on5)cc4)c4c(N)ncnc43)CC2)CCN1` [Example 130, 1-(4-(4-amino-7-((cis)-4-((S)-3-methylpiperazin-1-yl)cyclohexyl)-7H-pyrrolo[2,3-d]pyrimidin-5-yl)phenyl)-3-(5-(tert-butyl)isoxazol-3-yl)urea] the value was 50 to 250 nM; for `COc1cc(-c2cn([C@H]3CO[C@H](C4CCN(C)CC4)OC3)c3ncnc(N)c23)ccc1Oc1ccccc1` [Example 131, 5-(3-methoxy-4-phenoxyphenyl)-7-((trans)-2-(1-methylpiperidin-4-yl)-1,3-dioxan-5-yl)-7H-pyrrolo[2,3-d]pyrimidin-4-amine], 50 to 250 nM.

In the case of `COc1cc(-c2cn([C@H]3CO[C@@H](C4CCN(C)CC4)OC3)c3ncnc(N)c23)ccc1Oc1ccccc1` [Example 133, 5-(3-methoxy-4-phenoxyphenyl)-7-((cis)-2-(1-methylpiperidin-4-yl)-1,3-dioxan-5-yl)-7H-pyrrolo[2,3-d]pyrimidin-4-amine], the IC50 is < 50 nM.

On to `COc1cc(-c2cn([C@H]3CC[C@H](N4CCN[C@@H](C)C4)CC3)c3ncnc(N)c23)ccc1Oc1ccccc1` [Example 134, 5-(3-Methoxy-4-phenoxyphenyl)-7-((trans)-4-((S)-3-methylpiperazin-1-yl)cyclohexyl)-7H-pyrrolo[2,3-d]pyrimidin-4-amine], for which the IC50 is < 50 nM.

For `CN1CCN(C2CCC(n3nc(-c4ccc(Oc5ccccc5)cc4F)c4c(N)ncnc43)C2)CC1` (stereo not shown) [Example 135], the IC50 is 50 to 250 nM. For `Nc1ncnc2c1c(-c1ccc(Oc3ccccc3)cc1)nn2[C@H]1CC[C@H](n2cc(CO)cn2)CC1` [Example 138, (1-((trans)-4-(4-Amino-3-(4-phenoxyphenyl)-1H-pyrazolo[3,4-d]pyrimidin-1-yl)cyclohexyl)-1H-pyrazol-4-yl)methanol] the value was < 50 nM; for `Nc1ncnc2c1c(-c1ccc(NC(=O)CCc3ccccc3)cc1)cn2C1CCC(C2OCC(N)CO2)CC1` (stereo not shown) [Example 139, N-(4-(4-Amino-7-(4-(5-amino-1,3-dioxan-2-yl)cyclohexyl)-7H-pyrrolo[2,3-d]pyrimidin-5-yl)phenyl)-3-phenylpropanamide], 50 to 250 nM; for `Nc1ncnc2c1c(-c1ccc(Oc3ccccc3)cc1)cn2C1CCC2(CC1)CCN(CCCCO)CC2` [Example 140, 4-(9-(4-amino-5-(4-phenoxyphenyl)-7H-pyrrolo[2,3-d]pyrimidin-7-yl)-3-azaspiro[5.5]undecan-3-yl)butan-1-ol], 50 to 250 nM.

Consider `Nc1ncnc2c1c(-c1ccc(Oc3ccccc3)cc1)cn2C1CCC2(CCNCC2)CC1` [Example 141, 5-(4-phenoxyphenyl)-7-(3-azaspiro[5.5]undecan-9-yl)-7H-pyrrolo[2,3-d]pyrimidin-4-amine], for which the IC50 was < 50 nM.

With `CN1CCC2(CCC(n3cc(-c4ccc(Oc5ccccc5)cc4)c4c(N)ncnc43)CC2)CC1` [Example 142, 7-(3-methyl-3-azaspiro[5.5]undecan-9-yl)-5-(4-phenoxyphenyl)-7H-pyrrolo[2,3-d]pyrimidin-4-amine], the IC50 is < 50 nM. Regarding `CN1CCOC(C2CCC(n3cc(-c4ccc(Oc5ccccc5)cc4)c4c(N)ncnc43)CC2)C1=O` (stereo not shown) [Example 143, 2-(4-(4-Amino-5-(4-phenoxyphenyl)-7H-pyrrolo[2,3-d]pyrimidin-7-yl)cyclohexyl)-4-methylmorpholin-3-one], the IC50 is 50 to 250 nM. For `CN1CCOC(C2CCC(n3cc(-c4ccc(Oc5ccccc5)cc4)c4c(N)ncnc43)CC2)C1` (stereo not shown) [Example 144, 7-(4-(4-Methylmorpholin-2-yl)cyclohexyl)-5-(4-phenoxyphenyl)-7H-pyrrolo[2,3-d]pyrimidin-4-amine] the value was < 50 nM. For `CN1CCC([C@H]2OC[C@H](n3cc(-c4ccc(Oc5ccccc5)cc4)c4c(N)ncnc43)CO2)CC1` [Example 145, 7-((2r,5r)-2-(1-Methylpiperidin-4-yl)-1,3-dioxan-5-yl)-5-(4-phenoxyphenyl)-7H-pyrrolo[2,3-d]pyrimidin-4-amine] the value was < 50 nM; for `CN1CCC([C@H]2OC[C@@H](n3cc(-c4ccc(Oc5ccccc5)cc4)c4c(N)ncnc43)CO2)CC1` [Example 146, 7-((2s,5s)-2-(1-Methylpiperidin-4-yl)-1,3-dioxan-5-yl)-5-(4-phenoxyphenyl)-7H-pyrrolo[2,3-d]pyrimidin-4-amine], < 50 nM. For the molecule `CN1CCC(N2CCC(n3nc(-c4ccc(Oc5ccccc5)cc4F)c4c(N)ncnc43)CC2)CC1` [Example 147, 3-(2-fluoro-4-phenoxyphenyl)-1-(1′-methyl-[1,4′-bipiperidin]-4-yl)-1H-pyrazolo[3,4-d]pyrimidin-4-amine], the IC50 was < 50 nM. For `CN1CCC(N2CCC(n3nc(-c4ccc(NC(=O)Nc5cc(C(C)(C)C)on5)cc4)c4c(N)ncnc43)CC2)CC1` [Example 148, 1-(4-(4-Amino-1-(1′-methyl-[1,4′-bipiperidin]-4-yl)-1H-pyrazolo[3,4-d]pyrimidin-3-yl)phenyl)-3-(5-(tert-butyl)isoxazol-3-yl)urea] the value was 50 to 250 nM; for `COc1cc(-c2cn(C3CCN(C4CCN(C)CC4)CC3)c3ncnc(N)c23)ccc1Oc1ccccc1` [Example 149, 5-(3-methoxy-4-phenoxyphenyl)-7-(1′-methyl-[1,4′-bipiperidin]-4-yl)-7H-pyrrolo[2,3-d]pyrimidin-4-amine], < 50 nM.

On to `COc1cc(-c2cn(C3CCN(C4CCNCC4)CC3)c3ncnc(N)c23)ccc1Oc1ccccc1` [Example 150, 7-([1,4′-bipiperidin]-4-yl)-5-(3-methoxy-4-phenoxyphenyl)-7H-pyrrolo[2,3-d]pyrimidin-4-amine], for which the IC50 is < 50 nM. For `CN1CCC(N2CCC(n3cc(-c4ccc(NC(=O)Nc5cc(C(C)(C)C)on5)cc4)c4c(N)ncnc43)CC2)CC1` [Example 151, 1-(4-(4-amino-7-(1′-methyl-[1,4′-bipiperidin]-4-yl)-7H-pyrrolo[2,3-d]pyrimidin-5-yl)phenyl)-3-(5-(tert-butyl)isoxazole-3-yl)urea] the value was < 50 nM; for `CCN1CCC(N2CCC(n3nc(-c4ccc(Oc5ccccc5)cc4F)c4c(N)ncnc43)CC2)CC1` [Example 152, 1-(1′-ethyl-[1,4′-bipiperidin]-4-yl)-3-(2-fluoro-4-phenoxyphenyl)-1H-pyrazolo[3,4-d]pyrimidin-4-amine], < 50 nM; for `CC(C)N1CCC(N2CCC(n3nc(-c4ccc(Oc5ccccc5)cc4F)c4c(N)ncnc43)CC2)CC1` [Example 153, 3-(2-fluoro-4-phenoxyphenyl)-1-(1′-isopropyl-[1,4′-bipiperidin]-4-yl)-1H-pyrazolo[3,4-d]pyrimidin-4-amine], < 50 nM. For `C[C@H]1CC(N2CCC(n3cc(-c4ccc(Oc5ccccc5)cc4)c4c(N)ncnc43)CC2)CCN1` (stereo partly drawn) [Example 154, 7-((2′S)-2′-methyl-[1,4′-bipiperidin]-4-yl)-5-(4-phenoxyphenyl)-7H-pyrrolo[2,3-d]pyrimidin-4-amine] the value was < 50 nM; for `C[C@H]1CC(N2CCC(n3nc(-c4ccc(Oc5ccccc5)cc4F)c4c(N)ncnc43)CC2)CCN1` (stereo partly drawn) [Example 155, 3-(2-fluoro-4-phenoxyphenyl)-1-((2′S)-2′-methyl-[1,4′-bipiperidin]-4-yl)-1H-pyrazolo[3,4-d]pyrimidin-4-amine], < 50 nM. For `C[C@H]1CC(N2CCC(n3cc(-c4ccc(NC(=O)Nc5cc(C(C)(C)C)on5)cc4)c4c(N)ncnc43)CC2)CCN1` (stereo partly drawn) [Example 156, 1-(4-(4-amino-7-((2′S)-2′-methyl-[1,4′-bipiperidin]-4-yl)-7H-pyrrolo[2,3-d]pyrimidin-5-yl)phenyl)-3-(5-(tert-butyl)isoxazol-3-yl)urea] the value was < 50 nM. Take `Nc1ncnc2c1c(-c1ccc(Oc3ccccc3)cc1)cn2C1CCN(C2CCNC(CO)C2)CC1` (stereo not shown) [Example 157, (4-(4-amino-5-(4-phenoxyphenyl)-7H-pyrrolo[2,3-d]pyrimidin-7-yl)-[1,4′-bipiperidin]-2′-yl)methanol]: the IC50 is < 50 nM. On to `COC(=O)C1CC(N2CCC(n3cc(-c4ccc(Oc5ccccc5)cc4)c4c(N)ncnc43)CC2)CCN1` (stereo not shown) [Example 158, methyl 4-(4-amino-5-(4-phenoxyphenyl)-7H-pyrrolo[2,3-d]pyrimidin-7-yl)-[1,4′-bipiperidine]-2′-carboxylate], for which the IC50 was in the range of 50 to 250 nM.

On to `Nc1ncnc2c1c(-c1ccc(Oc3ccccc3)cc1)cn2C1CCN(C2CCCC(N)C2)CC1` (stereo not shown) [Example 159, 7-(1-(3-aminocyclohexyl)piperidin-4-yl)-5-(4-phenoxyphenyl)-7H-pyrrolo[2,3-d]pyrimidin-4-amine], for which the IC50 was < 50 nM.

With `CN1CCCC(N2CCC(n3cc(-c4ccc(Oc5ccccc5)cc4)c4c(N)ncnc43)CC2)C1` (stereo not shown) [Example 160, 7-(1′-methyl-[1,3′-bipiperidin]-4-yl)-5-(4-phenoxyphenyl)-7H-pyrrolo [2,3-d] pyrimidin-4-amine], the IC50 was in the range of 50 to 250 nM.

On to `Nc1ncnc2c1c(-c1ccc(Oc3ccccc3)cc1)cn2C1CCN(C(CO)CO)CC1` [Example 161, 2-(4-(4-amino-5-(4-phenoxyphenyl)-7H-pyrrolo[2,3-d]pyrimidin-7-yl)piperidin-1-yl)propane-1,3-diol], for which the IC50 is < 50 nM.
